The text below walks through data of patent US9289584B2, “Remotely controlled drug delivery systems” (THE UNIVERSITY OF BRITISH COLUMBIA, priority 2010, dated 2016).

In brackets after ≈: the same amount, converted by molar mass. Where two headings read alike, the source gives them in different places.

The solubility is the concentration that dissolves in the medium under given conditions.

A short description of data set [1]: Saturation solubility of DTX in the solution-filled reservoir. It is filed as physicochemical. The following applies: 40 mg/ml BSA solution in PBS inside the device reservoir, aqueous buffer, thermodynamic from solid; solid DTX dissolved by BSA solution in PBS inside the reservoir, 37° C. On the procedure:
Step 8: The device was exposed to a 40 mg/ml bovine serum albumin (BSA, Sigma-Aldrich Canada Ltd., Ontario, Canada) solution in phosphate buffered saline (PBS) and incubated at 37° C. to increase the wet ability of the magnetic PDMS membrane and thus filling of the drug reservoir with water. The hydrophilic aperture walls results in surface-tension driven flow through the aperture and gradual filling of the reservoir with solution.

Data set [2] in a line: HPLC test of drug released after 8 months inside the device. The following applies: HPLC after 8 months encapsulated inside the device. The class given is physicochemical. On the procedure: The released drug from the device was tested with HPLC after 8 months that was encapsulated inside the device.
For data set [3], the system named is PC3 cells. Kind of data set: PC3 cell viability (MTS assay). It is filed as cell-based. The following applies: for cell viability equilibrated: PC3 cells, 2 days incubation. Here is the method:
(§1) A prototype device was actuated at the desired number of actuations in 1% BSA solution. The released DTX was extracted in 1 ml DCM, as described previously. This mixture was dried down under nitrogen flow at 40° C. and was then reconstituted in either HUVEC and PC3 cell media to the original volume of 4 ml. Alternatively, fresh solutions of free DTX were prepared in various concentrations (2-250 nM) in acetonitrile, dried down under nitrogen flow at 40° C., and reconstituted in cell media.
PC3 and HUVEC cells were seeded in 96 well plates in their respective media at a concentration of 1500 cells per well. The cells were allowed to equilibrate for 2 days at which time they became approximately 50% confluent and were ready for drug incubation. Cells were incubated for 2 days at 37° C. with 200 μl of either freshly prepared solutions of DTX at various concentrations or with the drug solution released from the device under various number of device actuations. Cell viability was determined using a CellTiter 96 AQueous Non-Radioactive Cell Proliferation Assay (MTS assay, Promega Corporation, Madison, Wis.) and quantified by reading the absorbance at 492 nm minus the absorbance at 610 nm using a spectrometric plate reader. In both experiments, the values presented are for the averages of six replicas for each condition.
The biological activity of the DTX released from a device was investigated. This was achieved by incubating cells with the released drug in cell culture media and measuring the drug induced inhibition of proliferation in comparison to the inhibition caused by freshly made drug solutions. The device used for this study had been fabricated and left in BSA solution for two months (with an open aperture) prior to the experiment. The amount of DTX release during this period was estimated to be about 4.5 μg based on measured DTX diffusion rate. It was then actuated under a 255 mT magnetic field for different numbers of actuation cycles. The amounts of released drug were then experimentally interpolated from “number of actuations” to “drug concentrations”, using FIG. 4-a. […]
(In general: Formazan colour is commonly taken as a measure of viable cells.)

In data set [4] the test system is HUVECs. As to the kind of experiment: HUVEC viability (MTS assay). The class given is cell-based. The following applies: 2 days incubation. On the procedure:
as §1
PC3 and HUVEC cells were seeded in 96 well plates in their respective media at a concentration of 1500 cells per well. The cells were allowed to equilibrate for 2 days at which time they became approximately 50% confluent and were ready for drug incubation. […] Cell viability was determined using a CellTiter 96 AQueous Non-Radioactive Cell Proliferation Assay (MTS assay, Promega Corporation, Madison, Wis.) and quantified by reading the absorbance at 492 nm minus the absorbance at 610 nm using a spectrometric plate reader. […]
The biological activity of the DTX released from a device was investigated. […] The amount of DTX release during this period was estimated to be about 4.5 μg based on measured DTX diffusion rate. […]

The conditions of data set [5]: cited from earlier work.
Where [6] appears, read: drug released from the device (255 mT, device kept two months in BSA solution).

For `CC(=O)O[C@@]12CO[C@@H]1C[C@H](O)[C@@]1(C)C(=O)[C@H](O)C3=C(C)[C@@H](OC(=O)[C@H](O)[C@@H](NC(=O)OC(C)(C)C)c4ccccc4)C[C@@](O)([C@@H](OC(=O)c4ccccc4)[C@H]21)C3(C)C` [DTX, docetaxel], the solubility in data set [1] was ~5 µg/mL (≈ 0.00619 mM). Besides, in data set [2], the drug remained intact entry is on record as “over 95%”. Further, the cell viability equilibrated result is “about 34%” in data set [3] (setting [6]), “about 34%” in data set [3] (fresh free drug), “about 24%” in data set [4] (setting [6]) and “about 24%” in data set [4] (fresh free drug). Besides, in data set [3] (after two months, judged by antiproliferative effect), the “stability of DTX inside the PDMS MEMS device” value is “does not degrade”.
`CC(C)OC(=O)CCC/C=C\C[C@@H]1[C@@H](CC[C@@H](O)CCc2ccccc2)[C@H](O)C[C@@H]1O` [latanoprost]: in data set [5], the solubility is 50000 µg/mL (≈ 116 mM).
As for `CC(C)(C)NC[C@H](O)COc1nsnc1N1CCOCC1` [timolol], the solubility in data set [5] was 2500 µg/mL (≈ 7.9 mM).
